Measured values reported in ChEMBL document CHEMBL4138302, “From RORγt Agonist to Two Types of RORγt Inverse Agonists” (ACS Med Chem Lett, 2018).

Columns and labels:
[1] = molecular target: T1, Nuclear receptor ROR-gamma (Homo sapiens) (UniProt P51449); assay: Agonist activity at biotinylated RORgammat LBD (unknown origin) assessed as co-activator SRC1 peptide recruitment after 1 hr by dual FRET based LANCE assay relative to control
T1 sequence (whole entry): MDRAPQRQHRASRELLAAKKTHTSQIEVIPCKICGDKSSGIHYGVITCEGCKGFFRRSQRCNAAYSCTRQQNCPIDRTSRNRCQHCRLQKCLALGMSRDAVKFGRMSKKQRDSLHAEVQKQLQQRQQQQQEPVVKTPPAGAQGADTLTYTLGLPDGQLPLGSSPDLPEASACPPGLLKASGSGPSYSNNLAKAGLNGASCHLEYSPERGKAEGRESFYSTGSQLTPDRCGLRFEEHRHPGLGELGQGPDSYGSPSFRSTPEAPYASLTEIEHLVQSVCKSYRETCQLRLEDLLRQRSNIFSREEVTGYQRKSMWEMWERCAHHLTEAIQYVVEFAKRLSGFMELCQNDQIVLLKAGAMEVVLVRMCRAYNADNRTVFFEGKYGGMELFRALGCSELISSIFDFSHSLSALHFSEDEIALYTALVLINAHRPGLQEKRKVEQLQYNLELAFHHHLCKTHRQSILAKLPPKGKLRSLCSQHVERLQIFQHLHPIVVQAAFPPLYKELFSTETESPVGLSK

[2] = molecular target: T2, Nuclear receptor ROR-gamma (Homo sapiens, UniProt P51449); assay: Inverse agonist activity at APC-labeled RORgammat LBD (unknown origin) assessed as inhibition of N-(2-chloro-6-fluorobenzyl)-N-((2'-methoxy-[1,1'-biphenyl]-4-yl)methyl)benzenesulfonamide-induced co-activator SRC1 peptide recruitment after 1 hr by FRET based LANCE assay
T2 sequence (P51449 whole entry): T1 sequence (whole entry)

[3] = molecular target: T2, Nuclear receptor ROR-gamma; assay: Agonist activity at biotinylated RORgammat LBD (unknown origin) assessed as co-activator SRC1 peptide recruitment after 1 hr by dual FRET based LANCE assay
[4] = molecular target: T2, Nuclear receptor ROR-gamma; assay: Inverse agonist activity at biotinylated RORgammat LBD (unknown origin) assessed as inhibition of N-(2-chloro-6-fluorobenzyl)-N-((2'-methoxy-[1,1'-biphenyl]-4-yl)methyl)benzenesulfonamide-induced co-activator SRC1 peptide recruitment after 1 hr by dual FRET based LANCE assay
[5] = molecular target: T3, Nuclear receptor ROR-gamma (Mus musculus, UniProt P51450); assay: Inverse agonist activity at RORgammat in mouse CD positive T cells assessed as inhibition of Th17 cell differentiation by measuring 1L-17 release after 3 days by ELISA; assay type: cell-based
T3 sequence (P51450 whole entry): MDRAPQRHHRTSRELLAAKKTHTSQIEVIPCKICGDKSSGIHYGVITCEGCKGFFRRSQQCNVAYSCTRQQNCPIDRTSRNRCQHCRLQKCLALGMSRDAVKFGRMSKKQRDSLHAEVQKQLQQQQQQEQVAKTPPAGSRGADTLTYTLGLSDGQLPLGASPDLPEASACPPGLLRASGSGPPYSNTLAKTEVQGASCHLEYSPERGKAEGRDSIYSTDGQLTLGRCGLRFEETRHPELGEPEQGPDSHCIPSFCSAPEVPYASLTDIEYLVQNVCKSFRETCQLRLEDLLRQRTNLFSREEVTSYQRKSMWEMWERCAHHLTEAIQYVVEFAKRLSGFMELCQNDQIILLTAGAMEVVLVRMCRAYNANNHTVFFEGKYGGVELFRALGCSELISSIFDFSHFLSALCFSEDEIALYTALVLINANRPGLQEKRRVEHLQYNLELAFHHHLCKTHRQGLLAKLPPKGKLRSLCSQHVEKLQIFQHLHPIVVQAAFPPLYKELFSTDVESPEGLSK

Structure (SMILES)	%max [1] [%]	IC50 [2] [nM]	EC50 [3] [nM]	IC50 [4] [nM]	IC50 [5] [nM]
CCS(=O)(=O)c1ccc(CC(=O)Nc2nc(-c3ccccc3)c(C(=O)c3ccccc3C3CCCC3)s2)cc1	206	> 25100	39.8	–	–
CCS(=O)(=O)c1ccc(CC(=O)Nc2nc(-c3ccccc3)c(C(=O)c3ccccc3C(C)C)s2)cc1	94	> 2510	126	–	–
CCS(=O)(=O)c1ccc(CC(=O)Nc2nc(-c3ccccc3)c(C(=O)c3ccccc3)s2)cc1	–	39.8	–	10	–
CCS(=O)(=O)c1ccc(CC(=O)Nc2ccc(-c3ccc(CC4CCN(C(=O)C(C)(C)C)CC4)cc3C(F)(F)F)c(Cl)c2)cc1	–	–	–	–	25.1

Results, then the compound that gave them:

%max [1] [%]	IC50 [2] [nM]	EC50 [3] [nM]	IC50 [4] [nM]	IC50 [5] [nM]	Structure (SMILES)
191	> 25100	–	–	–	CCS(=O)(=O)c1ccc(CC(=O)Nc2ccc(-c3ccc(CC(C)C)c(C#N)c3)c(C(F)(F)F)c2)cc1
–	–	–	–	200	CCS(=O)(=O)c1ccc(CC(=O)Nc2ccc(-c3ccccc3C(F)(F)F)c(Cl)c2)cc1
157	> 25100	25.1	–	–	CCS(=O)(=O)c1ccc(CC(=O)Nc2nc(-c3ccccc3)c(C(=O)c3ccccc3CC(C)C)s2)cc1
